Tested on: Pseudomonas aeruginosa PAO1 MB9798 (efflux+, IMP-1)
Details: ratio MITC95 PA 9798/MITC95 PA 9799; imipenem at 2 μg/mL
How it was run: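 Isogenic PAO1 pair (efflux+ MB9798, efflux− MB9799, both IMP-1) tested by microbroth MIC with fixed imipenem and/or ceftazidime, usually at CLSI breakpoint, plus fixed class A/C inhibitor against AmpC. MBL inhibitor titrated; concentration restoring susceptibility recorded and fold difference between strains taken as efflux extent.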

First: Nc1nc2c(-c3ccc(S(=O)(=O)NCCC(N)C(F)F)c(S(N)(=O)=O)c3-c3nnn[nH]3)cccc2s1.O=CO (stereo not drawn) [Example 124, 4-(4-(2-aminobenzo[d]thiazol-4-yl)-2-sulfamoyl-3-(1H-tetrazol-5-yl)phenylsulfonamido)-1,1-difluorobutan-2-aminium formate]
Second: CN1CCC(NS(=O)(=O)c2ccc(-c3cccc4sc(N)nc34)c(-c3nnn[nH]3)c2S(N)(=O)=O)C1 (stereo not drawn) [Example 53, 4-(2-amino-1,3-benzothiazol-4-yl)-N1-(1-methylpyrrolidin-3-yl)-3-(1H-tetrazol-5-yl)benzene-1,2-disulfonamide]
The Efflux ratio of the first is higher: 4.00 for the first, 1.00 for the second.

Compared with `Nc1nc2c(-c3ccc(S(=O)(=O)N[C@@H]4CCNC4)c(S(N)(=O)=O)c3-c3nn[nH]n3)cc(I)cc2[nH]1` [Example 234, (R)-4-(2-amino-6-iodo-1H-benzo[d]imidazol-4-yl)-N^1-(pyrrolidin-3-yl)-3-(2H-tetrazol-5-yl)benzene-1,2-disulfonamide], `Nc1nc2c(-c3ccc(S(=O)(=O)N[C@@H]4CCNC4)c(S(N)(=O)=O)c3-c3nn[nH]n3)cccc2[nH]1` [Example 161, 4-(2-amino-1H-benzo[d]imidazol-4-yl)-N^1—((R)-pyrrolidin-3-yl)-3-(2H-tetrazol-5-yl)benzene-1,2-disulfonamide] is lower in Efflux ratio: 1.00 for the first, 0.78 for the second.

Going from `CN(C)C1CN(S(=O)(=O)c2ccc(-c3cccc4sc(N)nc34)c(-c3nnn[nH]3)c2S(N)(=O)=O)C1` [Example 39, 3-(2-amino-1,3-benzothiazol-4-yl)-6-{[3-(dimethylamino)azetidin-l-yl]sulfonyl}-2-(1H-tetrazol-5-yl)benzenesulfonamide] to `Nc1nc2c(-c3ccc(S(=O)(=O)N4CCC[C@@H](N)C4)c(S(N)(=O)=O)c3-c3nnn[nH]3)cccc2s1` [Example 68, 3-(2-amino-1,3-benzothiazol-4-yl)-6-{[(3R)-3-aminopiperidin-1-yl]sulfonyl}-2-(1H-tetrazol-5-yl)benzenesulfonamide], the Efflux ratio falls from 16.00 to 2.00.

Going from `C[C@H](CN)NS(=O)(=O)c1ccc(-c2cccnc2N)c(-c2nn[nH]n2)c1S(N)(=O)=O` [Example 212, (R)-N1-(1-aminopropan-2-yl)-4-(2-aminopyridin-3-yl)-3-(2H-tetrazol-5-yl)benzene-1,2-disulfonamide] to `NC[C@H](N)CNS(=O)(=O)c1ccc(-c2cccnc2N)c(-c2nn[nH]n2)c1S(N)(=O)=O` [Example 213, (S)-4-(2-aminopyridin-3-yl)-N1-(2,3-diaminopropyl)-3-(2H-tetrazol-5-yl)benzene-1,2-disulfonamide], the Efflux ratio rises from 1.00 to 2.00.

First: NCCNS(=O)(=O)c1ccc(-c2cccc3oc(C(=O)O)nc23)c(-c2nn[nH]n2)c1S(N)(=O)=O [Example 13, 4-(4-(N-(2-aminoethyl)sulfamoyl)-3-sulfamoyl-2-(2H-tetrazol-5-yl)phenyl)benzo oxazole-2-carboxylic acid]
Second: Cc1ccc(-c2ccc(S(=O)(=O)N[C@@H]3CCNC3)c(S(N)(=O)=O)c2-c2nn[nH]n2)c2nc(N)[nH]c12 [Example 285, (R)-4-(2-amino-7-methyl-1H-benzo[d]imidazol-4-yl)-N1-(pyrrolidin-3-yl)-3-(2H-tetrazol-5-yl)benzene-1,2-disulfonamide]
The Efflux ratio of the first is higher: 2.00 for the first, 1.00 for the second.

First: CN1CC(N(C)S(=O)(=O)c2ccc(-c3cccc4sc(N)nc34)c(-c3nnn[nH]3)c2S(N)(=O)=O)C1.O=C(O)C(F)(F)F [Example 107, 3-(4-(2-aminobenzo[d]thiazol-4-yl)-N-methyl-2-sulfamoyl-3-(1H-tetrazol-5-yl)phenylsulfonamido)-1-methylazetidin-1-ium 2,2,2-trifluoroacetate]
Second: Nc1nc2c(-c3ccc(S(=O)(=O)N[C@@H]4CN[C@@H](CO)C4)c(S(N)(=O)=O)c3-c3nnn[nH]3)cccc2s1 [Example 79, 4-(2-amino-1,3-benzothiazol-4-yl)-N1-[(3S,5R)-5-(hydroxymethyl)pyrrolidin-3-yl]-3-(1H-tetrazol-5-yl)benzene-1,2-disulfonamide]
The Efflux ratio of the first is higher: 4.00 for the first, 0.50 for the second.
